Source: patent US20090017139A1, “Iodine therapy dosing for treating medical conditions” (priority 2007, published 2009)

Experiments:
[1] = Example 5: daily feed consumption and weight during 2 months of daily dosing; format: in vivo, Sprague-Dawley rats; conditions: 2 months daily dosing, .06 to 2 mg I2/kg/day
Text: (§1) A total of 24 nulliparous and nonpregnant female Sprague-Dawley rats were received from Charles River Laboratories, Kingston, N.Y. The animals were 10 weeks of age and were examined for signs of disease or injury upon receipt. The animals were housed in stainless steel cages and fed LabDiet™ Certified Rodent Chow 5002 (PMI Feeds, Inc., a subsidiary of Purina Mills, Inc.) ad libitum and were provided fresh filtered tap water ad libitum. Environmental controls were set to maintain a temperature of 18 to 26° C. and a relative humidity of 30 to 70%. A 12-hour light/dark cycle was employed and the room underwent a minimum of ten fresh air changes/hour.
(§2) The animals were allowed to acclimate to laboratory conditions for 2 weeks. No abnormal findings excluding animals from study were noted. The animals were released from conditioning following an examination. Each animal was identified with a unique number that was indicated by ear punch. Cage labels, color-coded by group, identified each cage. The animals were maintained at laboratory conditions for an additional 2 weeks and then randomized into treatment groups by weight.
Tablets of IoGen, a registered trademark of Symbollon Pharmaceuticals Inc. of Framingham Mass. USA were dissolved in distilled water. […]

[2] = system: euthyroid mastalgia patients; assay: Example 1: multi-center, randomized, double-blind, placebo-controlled 6 month mastalgia study; format: in vivo, human; conditions: for change in the Lewin Overall pain scale: 6.0 mg/d
Description: A multi-center, randomized, double-blind, placebo-controlled study dosed patients for 6 months with 0.0, 1.5, 3.0 and 6.0 mg I2 daily. Healthy euthyroid mastalgia patients between the ages of 18 and 50 who were unresponsive to conservative treatments like OTC analgesics were eligible for the study. Subjects needed to identify a history of at least six months of moderate or severe breast pain and document at least 6 days per cycle of moderate or severe pain in a daily dairy (FIG. 1 below).

[3] = system: estrogen receptor; assay: Example 5: immunocytochemical detection of estrogen receptor in vaginal smears after 2 months of daily I2; format: in vivo, Sprague-Dawley rats; conditions: for Immunocytochemical Detection of Estrogen Receptor, Scores (mean ± SD), End: after 2 months daily dosing; for Immunocytochemical Detection of Estrogen Receptor, Scores (mean ± SD), End / Immunocytochemical Detection of Estrogen Receptor, Scores (mean ± SD), Baseline: scale +1 to +3, dissolved IoGen tablets; for Immunocytochemical Detection of Estrogen Receptor, Scores (mean ± SD), Baseline: before dosing
Text: as §1, §2
Tablets of IoGen, a registered trademark of Symbollon Pharmaceuticals Inc. of Framingham Mass. USA were dissolved in distilled water. IoGen tablets are compositions of iodide and iodate in a pharmaceutically acceptable carrier which will form molecular iodine “I2” once in contact with the gastric fluid in the stomach via a diffusion controlled oxidation reduction reaction as taught in U.S. Pat. No. 5,885,592 the disclosure of which is incorporated herein by reference. For this example the IoGen tablets weighted 400 mg and contained the equivalent of 6 mg of I2 in the form of iodide and iodate. The dissolved IoGen tables were used to provide defined daily doses of I2 to rats according to Table 1 below.
After randomization vaginal smears were taken from rats using a cotton swab; the swab was inserted into the vagina and rotated 360° in a clockwise direction, then the swab was smeared onto a glass slide and the smear was fixed in 3.7% formaldehyde with phosphate buffered saline (PBS) for 15 minutes. The slides were washed in PBS for 5 minutes and subsequently immersed in cold methanol and acetone (both at −10° C.) for 3 minutes. After a final rinse in cold PBS for 5 minutes the slides were stored at −20° C. in a solution of PBS-glycerol.
Rats were then dosed daily for the next 2 months according to the schedule in Table 1. […] After 2 months of daily dosing vaginal swabs were taken again and slides were prepared as on day 1 of the dosing regimen.
Immunocytochemical (IC) detection of estrogen receptor (hereafter “ER”) status was accomplished using mouse monoclonal antibody 6F11 from Vector Laboratories (Burlingame, Calif.). A gentle stream of 10 mM citrate buffer (pH 6.0) was passed over each slide for 45 minutes and then a 1/25 dilution of the antibody was incubated with slides at room temperature for 30 minutes. Slides were washed and the Vectastain ABC Kit for Mouse IgG (Vector Laboratories; Burlingame, Calif.) was used to visualize ER. The chromophone 3,3′ diaminobenzidine and peroxidase were used to stain areas of the slides that contained ER. The intensity of staining was scored semi quantitatively on a scale of +1 to +3. Each dosing group contained 6 animals.

[4] = I2 compared to iodide, cited from earlier work
[5] = system: breast cancer cell lines; conditions: cited from earlier work

II [I2, molecular iodine]
daily feed consumption or weight, placebo versus treated groups [1]: no statistically significant differences | change in the Lewin Overall pain scale ([2]; month 3): 45.4% | change in the Lewin Overall pain scale ([2]; month 6): 45.0% | magnitude of pain reduction versus dose ([2]; 1.5, 3.0, 6.0 mg daily, month 3 and month 6 (p<0.01)): increased with dose | difference among dosing groups in adverse events or thyroid related clinical chemistry tests ([2]; first 3 months of treatment): did not find any difference | Immunocytochemical Detection of Estrogen Receptor, Scores (mean ± SD), End ([3]; Group 2, .06 mg I2/kg/day): 1.167 ± 0.752 | Immunocytochemical Detection of Estrogen Receptor, Scores (mean ± SD), Baseline ([3]; Group 2, .06 mg I2/kg/day): 2.000 ± 0.632 | Immunocytochemical Detection of Estrogen Receptor, Scores (mean ± SD), End ([3]; Group 3, 0.2 mg I2/kg/day): 1.167 ± 0.408 | Immunocytochemical Detection of Estrogen Receptor, Scores (mean ± SD), Baseline ([3]; Group 3, 0.2 mg I2/kg/day): 2.167 ± 0.753 | Immunocytochemical Detection of Estrogen Receptor, Scores (mean ± SD), End ([3]; Group 4, 2 mg I2/kg/day): 0.833 ± 0.408 | Immunocytochemical Detection of Estrogen Receptor, Scores (mean ± SD), Baseline ([3]; Group 4, 2 mg I2/kg/day): 2.333 ± 0.516 | effect of daily treatment on ER in the endometrium ([3]; trend across the 3 dosing groups p<0.001): down regulation of ER | change from baseline to end in ER score, placebo versus all rats that received I2 ([3]; unpaired t-test, p=0.015): statistically significant difference | percentage of administered iodine retained in the stomach contents and covalently bound to a lipid material [4]: larger percentage | percentage of iodine retained in thyroid 72 hours after administration, compared to iodide [4]: significantly less | retention of iodine in thyroid at 72 hours, less than with iodide ([4]; fasted rats, acute exposure): about 30% | effect on estrogen receptor concentration [5]: reducing the concentration of estrogen receptor
